Experimental data published in patent publication US20220339143A1, “TAK-925 FOR USE IN TREATING NARCOLEPSY” (Takeda Pharmaceutical Company Limited, priority 2019, published 2022).
Like-named read-outs stand apart in the source and are kept apart here.

Assay: Single dose PK in healthy subjects (Cohorts 1, 2, S1 and S2), plasma
Assay type: in vivo, human
Conditions: human, plasma, intravenous
Method: This study investigates (i) the safety and tolerability of Compound A (methyl (2R,3S)-3-((methylsulfonyl)amino)-2-(((cis-4-phenylcyclohexyl)oxy)methyl)piperidine-1-carboxylate) when a single dose given as a 9 hour continuous IV infusion is administered to healthy adults, healthy elderly subjects and patients with narcolepsy type 1 (NT1); (ii) the pharmacokinetics of Compound A when a single dose given as a 9 hour continuous IV infusion is administered to healthy adults, healthy elderly subjects and patients with narcolepsy type 1; and (iii) the pharmacodynamics (PD) effects of Compound A, primarily by evaluation of the sleep latency on MWT when a single dose given as a 9 hour continuous IV infusion is administered to patients with narcolepsy type 1.
Pharmacokinetics: Concentrations of Compound A in plasma, and CSF, and pharmacokinetics parameters.
On average, the time to reach the plateau appeared to be approximately 3 to 4 hours after the start of infusion. […] After switching off the IV infusion, Compound A plasma concentrations declined rapidly and in a biphasic manner with a mean terminal disposition phase t1/2z ranging approximately from 3.4 to 5.1 hours across all doses. […] Table 5 provides a summary of plasma concentrations of Compound A after a single IV infusion in healthy subjects. Table 6 provides a summary of pharmacokinetic parameters of Compound A after a single IV infusion in healthy subjects.

[1] = 28 mg, read-out: Plasma concentration, Minimum
[2] = 28 mg, read-out: Plasma concentration, Q1
[3] = 28 mg, read-out: Plasma concentration, Q3
[4] = 28 mg, read-out: Plasma concentration, Maximum
[5] = 28 mg, read-out: Plasma concentration, Mean
[6] = 28 mg, read-out: Plasma concentration, Median
[7] = 56 mg, read-out: Plasma concentration, Maximum
[8] = 56 mg, read-out: Plasma concentration, Mean
[9] = 56 mg, read-out: Plasma concentration, Median
[10] = 56 mg, read-out: Plasma concentration, Minimum
[11] = 56 mg, read-out: Plasma concentration, Q1
[12] = 56 mg, read-out: Plasma concentration, Q3
[13] = 112 mg, read-out: Plasma concentration, Maximum
[14] = 112 mg, read-out: Plasma concentration, Mean
[15] = 112 mg, read-out: Plasma concentration, Median
[16] = 112 mg, read-out: Plasma concentration, Minimum
[17] = 112 mg, read-out: Plasma concentration, Q1
[18] = 112 mg, read-out: Plasma concentration, Q3

## COC(=O)N1CCC[C@H](NS(C)(=O)=O)[C@@H]1CO[C@H]1CC[C@@H](c2ccccc2)CC1 [Compound A, methyl (2R,3S)-3-((methylsulfonyl)amino)-2-(((cis-4-phenylcyclohexyl)oxy)methyl)piperidine-1-carboxylate]
[1]
  concentration at 2 hr: 33.7 ng/mL
  concentration at 3 hr: 35.6 ng/mL
  concentration at 4 hr: 44.4 ng/mL
  concentration at 6 hr: 40.2 ng/mL
  concentration at 8 hr: 37.1 ng/mL
  concentration at 9 hr: 40.6 ng/mL
[2]
  concentration at 2 hr: 45.5 ng/mL
  concentration at 3 hr: 51.3 ng/mL
  concentration at 4 hr: 54.2 ng/mL
  concentration at 6 hr: 45.4 ng/mL
  concentration at 8 hr: 43.3 ng/mL
  concentration at 9 hr: 51 ng/mL
[3]
  concentration at 2 h: 57.8 ng/mL
  concentration at 3 h: 63.7 ng/mL
  concentration at 4 hr: 58.8 ng/mL
  concentration at 6 hr: 48.8 ng/mL
  concentration at 8 hr: 52.5 ng/mL
  concentration at 9 hr: 57.4 ng/mL
[4]
  concentration at 3 h: 65.2 ng/mL
  concentration at 4 hr: 63.1 ng/mL
  concentration at 6 hr: 51.7 ng/mL
  concentration at 8 hr: 58.8 ng/mL
  concentration at 9 hr: 58.3 ng/mL
[5]
  concentration at 3 hr: 55 ng/mL
  concentration at 4 h: 55 ng/mL
  concentration at 6 hr: 46.8 ng/mL
  concentration at 8 hr: 48.7 ng/mL
  concentration at 9 hr: 52.5 ng/mL
[6]
  concentration at 3 h: 59.3 ng/mL
  concentration at 4 hr: 54.5 ng/mL
  concentration at 6 hr: 48 ng/mL
  concentration at 8 hr: 51.7 ng/mL
  concentration at 9 hr: 55.3 ng/mL
[7]
  concentration at 0.5 h: 80.3 ng/mL
  concentration at 1 h: 91.5 ng/mL
  concentration at 1.5 h: 116 ng/mL
  concentration at 2 h: 114 ng/mL
  concentration at 3 h: 133 ng/mL
  concentration at 4 h: 144 ng/mL
  concentration at 6 h: 119 ng/mL
  concentration at 8 h: 133 ng/mL
  concentration at 9 h: 138 ng/mL
[8]
  concentration at 0.5 h: 71.2 ng/mL
  concentration at 1 h: 81.2 ng/mL
  concentration at 1.5 h: 92.8 ng/mL
  concentration at 2 h: 99.5 ng/mL
  concentration at 3 h: 114 ng/mL
  concentration at 4 hr: 118 ng/mL
  concentration at 6 hr: 91.8 ng/mL
  concentration at 8 hr: 102 ng/mL
  concentration at 9 hr: 115 ng/mL
[9]
  concentration at 0.5 h: 70.7 ng/mL
  concentration at 1 h: 79 ng/mL
  concentration at 1.5 h: 90.2 ng/mL
  concentration at 2 h: 99 ng/mL
  concentration at 3 h: 112 ng/mL
  concentration at 4 h: 113 ng/mL
  concentration at 6 h: 90.8 ng/mL
  concentration at 8 h: 99.7 ng/mL
  concentration at 9 h: 112 ng/mL
[10]
  concentration at 0.5 h: 64.4 ng/mL
  concentration at 1 h: 74.8 ng/mL
  concentration at 1.5 h: 75.5 ng/mL
  concentration at 2 h: 86.5 ng/mL
  concentration at 3 h: 98.3 ng/mL
  concentration at 4 hr: 107 ng/mL
  concentration at 6 hr: 73.5 ng/mL
  concentration at 8 hr: 84.9 ng/mL
  concentration at 9 hr: 102 ng/mL
[11]
  concentration at 0.5 h: 65 ng/mL
  concentration at 1 h: 76.2 ng/mL
  concentration at 1.5 h: 88.8 ng/mL
  concentration at 2 h: 88.8 ng/mL
  concentration at 3 h: 98.6 ng/mL
  concentration at 4 hr: 109 ng/mL
  concentration at 6 h: 73.8 ng/mL
  concentration at 8 h: 87.2 ng/mL
  concentration at 9 h: 104 ng/mL
[12]
  concentration at 0.5 h: 75.9 ng/mL
  concentration at 1 h: 86.3 ng/mL
  concentration at 1.5 h: 96.1 ng/mL
  concentration at 2 h: 110 ng/mL
  concentration at 3 h: 131 ng/mL
  concentration at 4 h: 120 ng/mL
  concentration at 6 h: 103 ng/mL
  concentration at 8 h: 108 ng/mL
  concentration at 9 h: 122 ng/mL
[13]
  concentration at 0.5 h: 174 ng/mL
  concentration at 1 h: 172 ng/mL
  concentration at 1.5 h: 255 ng/mL
[14]
  concentration at 0.5 h: 132 ng/mL
  concentration at 1 h: 154 ng/mL
  concentration at 1.5 h: 194 ng/mL
[15]
  concentration at 0.5 h: 122 ng/mL
  concentration at 1 h: 162 ng/mL
[16]
  concentration at 0.5 h: 108 ng/mL
  concentration at 1 h: 126 ng/mL
[17]
  concentration at 0.5 h: 119 ng/mL
  concentration at 1 h: 131 ng/mL
[18]
  concentration at 0.5 h: 149 ng/mL
  concentration at 1 h: 169 ng/mL
